Where two headings read alike, the source gives them in different places.
How the values were obtained:
TDP-43 [1] = assay: TDP-43 aggregation in cytoplasm by immunofluorescence staining and fluorescence microscopy in H2O2-treated SH-SY5Y cells
TDP-43 protein = assay: inhibition of TDP-43 protein aggregation in SH-SY5Y cells (summary statements)
TDP-43 [2] = assay: TDP-43 aggregation (TDP-43 aggregation kit) in H2O2-treated SH-SY5Y cells
TDP-25 = assay: intracellular localization of TDP-25 in SH-SY5Y cells transfected with GFP-TDP-25 (fluorescence microscopy)
Text: (§1) In FIG. 4, blue fluorescence indicates the nucleus with DAPI, and green fluorescence indicates TDP-25 with GFP.
(§2) To construct an aggregation model of TDP-43 protein in the SH-SY5Y cells, which are human neuroblastoma cell lines, a GFP-TDP-25 plasmid was transfected into cells, and it may be confirmed that the transfected GFP-TPD-25 (GFP: green fluorescent protein) is present in the cytoplasm.

HSPB8 = assay: protein expression of chaperone HSPB8 in SH-SY5Y cells
insoluble TDP-43 = assay: expression of insoluble TDP-43 in GFP-TDP-25 TDP-43 aggregation model of SH-SY5Y cells; details: GFP-TDP-25 transfected cells; metformin (5 mM), colchicine (1000 nM) alone or in combination; FIG. 4 B and C
Text: as §1, §2

ALS = details: approved ALS therapeutics, background; cited from earlier work
[3] = system: HSPB8 (Heat Shock Protein Family B (Small) Member 8); details: sh-sy5y cells, 24 h

For `CN(C)C(=N)N=C(N)N` [metformin], the “effect on TDP-43 aggregation in the cytoplasm” value (TDP-43 [1]; hydrogen peroxide-treated cells, drugs alone or in combination, FIG. 3 A and B) was “did not inhibit”, the “reduction/inhibition of TDP-43 aggregation (summary)” value (TDP-43 protein; colchicine alone, metformin alone, or in combination) was “hardly reduced” and the “effect on hydrogen peroxide-induced TDP-43 aggregation” value (TDP-43 [2]; 24 h drug, then 1 mM H2O2 for 1 hour, metformin 0.1-5 mM, colchicine 1-1000 nM, alone or in combination, FIG. 2) was “did not have a significant effect”. The “TFEB mRNA expression” value (TFEB; metformin alone, 0.1-5 mM, 24 hours, FIG. 5) was “no effect”, the “effect on TDP-25 accumulation in the cytoplasm” value (TDP-25; GFP-TDP-25 transfected cells, drugs alone or in combination, FIG. 4 A) was “did not affect” and the “SQSTM1/p62 mRNA expression” value (SQSTM1/p62; metformin alone, 0.1-5 mM, 24 hours, FIG. 6) was “no effect”. The “change in HSPB8 protein expression” value (HSPB8; metformin (5 mM) alone or colchicine (1000 nM) alone, FIG. 1 D) was “inadequate change”, the “effect on expression of insoluble TDP-43” value (insoluble TDP-43) was “slightly reduced” and the “MAP1LC3A mRNA expression” value (MAP1LC3A; metformin alone, 0.1-5 mM, 24 hours, FIG. 7) was “no effect”.
For `OO` [hydrogen peroxide (H2O2), hydrogen peroxide], the “induction of TDP-43 aggregation in the cytoplasm” value (TDP-43 [1]; 1 mM hydrogen peroxide, 1 hour, FIG. 3 A and B) was “significantly induced TDP-43 aggregation in the cytoplasm” and the “induction of abnormal aggregation of TDP-43” value (TDP-43 [2]; 1 mM hydrogen peroxide, 1 hour, FIG. 2) was “significantly induced abnormal aggregation of TDP-43”.
For `CC1=NN(c2ccccc2)C(=O)C1` [Edaravone], the “effect on life expectancy or disease progression in ALS patients” value (ALS) is given as “help extend life expectancy in patients by several months or delay the progression of the disease at an early stage” and the “therapeutic effect in ALS” value (ALS) is given as “only a symptom-relieving effect”.
For `Nc1nc2ccc(OC(F)(F)F)cc2s1` [Riluzole], the “effect on life expectancy or disease progression in ALS patients” value (ALS) is listed as “help extend life expectancy in patients by several months or delay the progression of the disease at an early stage” and the “therapeutic effect in ALS” value (ALS) is listed as “only a symptom-relieving effect”.
With `COc1cc2c(c(OC)c1OC)-c1ccc(OC)c(=O)cc1[C@@H](NC(C)=O)CC2` [colchicine] the “effect on TDP-43 aggregation in the cytoplasm” value (TDP-43 [1]) was “did not inhibit”, the “increase in HSPB8 mRNA expression” value [3] was “approximately 2 fold” and the “reduction/inhibition of TDP-43 aggregation (summary)” value (TDP-43 protein) was “hardly reduced”. The “effect on hydrogen peroxide-induced TDP-43 aggregation” value (TDP-43 [2]) was “slight effect”, the “increase of TFEB mRNA expression” value (TFEB; sh-sy5y cells, 24 h) was 2-3 times and the “effect on TDP-25 accumulation in the cytoplasm” value (TDP-25) was “did not affect”. The “increase of SQSTM1/p62 mRNA expression” value (SQSTM1/p62; sh-sy5y cells, 24 h) was 2-3 times, the “change in HSPB8 protein expression” value (HSPB8) was “inadequate change” and the “increase of MAP1LC3A mRNA expression” value (MAP1LC3A; sh-sy5y cells, 24 h) was 2-3 times.

Source: US20260345527A1 (priority 2022, published 2026)
